Blank lines part the entries; values can stand above or below the compound they belong to.
Tests used:
U87GM cells = experiment: Plate-based evaluation of cell binding (on-cell Western); settings: <0.5 μM; in comparison to a specific targeted probe
Procedure: Compound 10/RGD and 10/EGF were prepared to be used in conjunction with 10 to estimate relative non-specific binding of the dye relative to a labeled targeted agent. The on-cell Western was the format used and imaged on the Odyssey Sa.
In a plate-based evaluation of 10/RGD on U87GM cells, 10 was added to assess level of cell binding (FIG. 27).

[1] = In vivo clearance study of carboxylate 10; set-up: species or system Nude mice
Procedure: Nude mice were used for the clearance study with the carboxylate and for the targeted agent evaluation. A dose of 2 nmol 10 was administered intravenously (IV) via the tail vein of the mouse and serial imaged over the next 48 h with the Pearl Impulse imaging system. Excised organs were evaluated to assess organs with the highest retention.

A431 subcutaneous tumors = experiment: In vivo dose testing of 10/EGF; set-up: species or system nude mice; settings: excised organs 48 h post injection
Procedure: Testing for optimal dose in nude mice bearing A431 subcutaneous tumors was done. Four doses were tested: 0.5, 1, 2, and 3 nmoles. Two mice were used per treatment dosage. A431 tumor cells were implanted on the right hip and allowed to reach approximately 0.5 cm. FIG. 31 presents dorsal views of all animals under a common LUT.

[2] = Absorption and emission of the dye; format: physicochemical
Procedure: Compound 9 (80 mg), 3-(2-carboxyethyl)phenylboronic acid (40 mg), and cesium carbonate (20 mg) were stirred into water (20 mL) under nitrogen at room temperature. Tetrakis(triphenylphosphine)palladium (0) (10 mg) were added to the reaction mixture. The mixture was refluxed for 4 h, and the solvent and volatile compounds then were evaporated under vacuum. The crude product was purified by flash chromatography on silica 60, 200-400 mesh, eluting with a 20/80 acetonitrile/water mixture. The purified compound 56 had λMeOH=680 nm, λPBS=672 nm, ε=160,000.
Fluorescence determinations were made at a fixed antibody concentration of 10 μg/mL in physiological buffer using dye-labeled goat anti-rabbit (GAR) conjugates prepared at LI-COR (FIGS. 13A-B and 14). A dye-labeled lactalbumin conjugate was also tested (FIG. 15).
20's absorbance and emission maximum is at 676 nm in aqueous solution and at 693 nm in methanol.

[3] = Photostability comparison on nitrocellulose membrane; format: physicochemical; settings: dye-labeled GAR on nitrocellulose; repeated Odyssey scans; normalized to time zero
Procedure: Test samples were prepared by spotting equimolar amounts of dye (i.e., goat anti-rabbit (GAR) secondary antibodies labeled with the appropriate dye) onto nitrocellulose membrane. The membrane was then scanned repeatedly on an Odyssey Infrared Imager, and the signal intensity was normalized to the control signal at time zero (FIG. 19A-B).

[4] = test system: U87 tumor cells (integrins); experiment: In vivo optical imaging with 10-labeled cyclo(RGDfK) probe; set-up: species or system Mice
Procedure: The suitability of compound 10 for in vivo optical imaging was evaluated using an 10-labeled cyclo(Arg-Gly-Asp-D-Phe-Lys) (RGDfK) probe. This probe was specifically designed to target integrins. Integrins are cell surface heterodimeric glycoproteins important in cell adhesion and signal transduction. This receptor class is involved in tumor growth, tumor invasiveness, metastasis, tumor-induced angiogenesis, inflammation, osteoporosis, and rheumatoid arthritis.
Mice were implanted with U87 tumor cells. The animals were injected and imaged while the tumors were still extremely small. This provided a good test of how visible the tumors are over any background signal that the probe detected.
Tumors were excised, weighed, and imaged on a Pearl Imager (FIG. 3).

SMILES: CC1(C)C(/C=C/C(=C/C=C2/N(CCCS(=O)(=O)[O-])c3ccc(S(=O)(=O)[O-])cc3C2(C)C)c2cccc(CCC(=O)O)c2)=Nc2c1cc(Cl)c[n+]2CCCS(=O)(=O)[O-].[Na+].[Na+] [Compound 10]
- level of cell binding (U87GM cells): low levels of cell binding
- time of signal spike ([1]; 2 nmol IV): about 1 hour
- retention in the kidneys ([1]; 2 nmol IV, 44 hr period): very little retention in the kidneys, if at all
- route of clearance ([1]; 2 nmol IV, 44 hr period): clears via the liver/gall bladder/intestinal tract
- time by which total signal is dramatically reduced ([1]; 2 nmol IV, whole-image ROI): ≤ 4 h
- retention in excised organs ([1]; 44 hr post injection, liver, heart, kidney, spleen, intestine, muscle, tumor): very little retention of probe
- signal from the tumor cells (A431 subcutaneous tumors): very little signal from the tumor cells
- Extinction Coefficient ([2]; MeOH): 170,000
- Max. Abs. ([2]; MeOH): 680 nm
- Max. Emis. ([2]; MeOH): 694 nm
- Extinction Coefficient ([2]; PBS): 160,000
- Max. Abs. ([2]; PBS): 672 nm
- Max. Emis. ([2]; PBS): 694 nm

- relative fluorescence on repeated scanning (photostability) [3]: unchanged
SMILES: C[Si](C)(CCC[N+](CCCS(=O)(=O)[O-])(CCCS(=O)(=O)[O-])CCCS(=O)(=O)[O-])O[Si]1(O[Si](C)(C)CCC[N+](CCCS(=O)(=O)[O-])(CCCS(=O)(=O)[O-])CCCS(=O)(=O)[O-])n2c3c4ccccc4c2N=C2N=C(N=c4c5ccccc5c(n41)=NC1=NC(=N3)c3ccccc31)c1cccc(OCCCOC(=O)NCCCCCC(=O)ON3C(=O)CCC3=O)c12.[Na+].[Na+].[Na+].[Na+] (centres unmarked) [Compound 700DX]

SMILES: CC1(C)C(/C=C/C(=C/C=C2\N(CCCS(=O)(=O)[O-])c3ccc(S(=O)(=O)[O-])cc3C2(C)C)c2cccc(CCC(=O)NCCCC[C@@H]3NC(=O)[C@@H](Cc4ccccc4)NC(=O)[C@H](CC(=O)[O-])NC(=O)CNC(=O)[C@H](CCCNC(=N)N)NC3=O)c2)=Nc2c1cc(Cl)c[n+]2CCCS(=O)(=O)[O-].[Na+].[Na+].[Na+] [Compound 21, Sodium 2-((2S,5R,8S,11S)-5-benzyl-8-(4-(3-(3-((1E,3Z,5Z)-1-(5-chloro-3,3-dimethyl-7-(3-sulfonatopropyl)-3H-pyrrolo[2,3-b]pyridin-7-ium-2-yl)-5-(3,3-dimethyl-5-sulfonato-1-(3-sulfonatopropyl)indolin-2-ylidene)penta-1,3-dien-3-yl)phenyl)propanamido)butyl)-11-(3-guanidinopropyl)-3,6,9,12,15-pentaoxo-1,4,7,10,13-pentaazacyclopentadecan-2-yl)acetate]
- clearance and background ([4]; 1 nmol): cleared the system without an undue level of background
- time post-injection by which tumors were visible ([4]; 1 nmol intravenously, two tumor-bearing mice): ≤ 5 h
- detectability of tumors ([4]; 1 nmol, extremely small tumors (9 and 15 mg)): easily detectable
